Results published in US20190292167A1, “HETEROAROMATIC COMPOUNDS USEFUL FOR THE TREATMENT OF PROLIFERATIVE DISEASES” (Syros Pharmaceuticals, Inc., priority 2013, published 2019).
Like-named read-outs stand apart in the source and are kept apart here.

What was measured:
CDK7 = molecular target: T1, CDK7 (Homo sapiens, UniProt P50613); experiment: Adapta kinase assay (Life Technologies) against CDK7, co-factors cyclin H and MNAT1; type: biochemical; conditions: read-out: CDK7 Inhibition
T1 construct: purchased Life Technologies (Adapta kinase assay service)
Description: Compounds of the invention were assayed for activity against CDK7 at Life Technologies™ (Grand Island, N.Y.) using their commercially available Adapta® kinase assay services. […] Details of the assay, including the substrate used for CDK7 kinase, are available on the Life Technologies web site (http://www.lifetechnologies.com/us/en/homellife-science/drug-discovery/target-and-lead-identification-and-validation/kinasebiology/kinase-activity-assays.html).
The co-factors used for the assay were cyclin H and MNAT1.

Jurkat = experiment: Inhibition of cell proliferation, CellTiter-Glo, 72 hour; type: cell-based; conditions: Blood cancer cell line, 72 hour, read-out: Inhibition of Proliferation of Jurkat Cells
Description: The following cancer cell lines were tested with the media conditions indicated: […]

T1 sequence (P50613 whole entry): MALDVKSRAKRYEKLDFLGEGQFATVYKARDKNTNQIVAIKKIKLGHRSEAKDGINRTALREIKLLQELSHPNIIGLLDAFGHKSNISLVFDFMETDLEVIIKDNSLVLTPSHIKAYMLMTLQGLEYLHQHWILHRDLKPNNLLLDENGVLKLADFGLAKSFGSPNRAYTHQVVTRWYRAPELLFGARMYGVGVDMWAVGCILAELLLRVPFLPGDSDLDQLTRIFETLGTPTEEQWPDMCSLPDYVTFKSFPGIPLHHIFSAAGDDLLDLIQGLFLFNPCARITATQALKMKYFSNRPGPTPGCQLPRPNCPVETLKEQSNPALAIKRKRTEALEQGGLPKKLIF
T1 sequence (P51946 whole entry partner): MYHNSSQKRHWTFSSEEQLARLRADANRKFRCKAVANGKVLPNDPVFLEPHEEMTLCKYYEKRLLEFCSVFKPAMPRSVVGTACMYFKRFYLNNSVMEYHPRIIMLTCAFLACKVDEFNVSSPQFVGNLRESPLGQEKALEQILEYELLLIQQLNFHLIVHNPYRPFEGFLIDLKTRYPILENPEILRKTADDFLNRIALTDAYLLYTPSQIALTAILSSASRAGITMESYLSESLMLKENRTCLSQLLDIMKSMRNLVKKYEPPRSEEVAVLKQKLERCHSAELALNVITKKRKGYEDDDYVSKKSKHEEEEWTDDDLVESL
T1 sequence (P51948 whole entry partner): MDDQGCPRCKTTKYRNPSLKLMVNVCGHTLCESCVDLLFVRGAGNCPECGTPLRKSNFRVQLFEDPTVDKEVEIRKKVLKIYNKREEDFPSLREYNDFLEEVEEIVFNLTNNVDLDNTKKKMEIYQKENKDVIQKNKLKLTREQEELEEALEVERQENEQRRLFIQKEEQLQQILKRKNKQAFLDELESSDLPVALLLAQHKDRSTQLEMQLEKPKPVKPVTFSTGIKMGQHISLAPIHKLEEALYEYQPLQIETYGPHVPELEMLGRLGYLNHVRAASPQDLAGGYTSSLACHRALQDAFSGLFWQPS

| SMILES | IC50 (CDK7) | IC50 (Jurkat; Homo sapiens, Jurkat, 72 h) | IC50 (Jurkat) |
| --- | --- | --- | --- |
| CN(C)C/C=C/C(=O)Nc1ccc(C(=O)N[C@@H]2CC[C@H](Nc3ncc(Cl)c(-c4c[nH]c5ccccc45)n3)C2)cc1 [Compound 129, N-((1R,3S)-3-((5-chloro-4-(1H-indol-3-yl)pyrimidin-2-yl)amino)cyclopentyl)-4-((E)-4-(dimethylamino)but-2-enamido)benzamide] | < 100 nM | < 500 nM | – |
| CN(C)C/C=C/C(=O)N(C)c1cccc(CN2CCC(Nc3ncc(Cl)c(-c4c[nH]c5ccccc45)n3)CC2)c1 [Compound 145, (E)-N-[3-[[4-[[5-chloro-4-(1H-indol-3-yl)pyrimidin-2-yl]amino]-1-piperidyl]methyl]phenyl]-4-(dimethylamino)-N-methyl-but-2-enamide] | < 100 nM | < 500 nM | – |
| C=CC(=O)Nc1ccc(CNC(=O)[C@@H]2CNC[C@H](Nc3ncc(Cl)c(-c4c[nH]c5ccccc45)n3)C2)cc1 (relative stereo) [Compound 152, (+/−cis)-N-(4-acrylamidobenzyl)-5-((5-chloro-4-(1H-indol-3-yl)pyrimidin-2-yl)amino)piperidine-3-carboxamide] | < 100 nM | – | 500 to 5000 nM |
| CN(C)C/C=C/C(=O)Nc1ccc(C(=O)N2CCC(Nc3ncc(Cl)c(-c4cc[nH]n4)n3)CC2)cc1 [Compound 117, (E)-N-(4-(4-((5-chloro-4-(1H-pyrazol-3-yl)pyrimidin-2-yl)amino)piperidine-1-carbonyl)phenyl)-4-(dimethylamino)but-2-enamide] | > 1000 nM | > 5000 nM | – |
| CN(C)C/C=C/C(=O)Nc1ccc(C(=O)N[C@@H]2CC[C@H](Nc3ncc(Cl)c(-c4cc[nH]n4)n3)C2)cc1.CN(C)C/C=C/C(=O)Nc1ccc(C(=O)N[C@H]2CC[C@@H](Nc3ncc(Cl)c(-c4cc[nH]n4)n3)C2)cc1 (mixture of isomers) [Compound 124, N-((1R,3S)-3-((5-chloro-4-(1H-pyrazol-3-yl)pyrimidin-2-yl)amino)cyclopentyl)-4-((E)-4-(dimethylamino)but-2-enamido)benzamide and N-((1S,3R)-3-((5-chloro-4-(1H-pyrazol-3-yl)pyrimidin-2-yl)amino)cyclopentyl)-4-((E)-4-(dimethylamino)but-2-enamido)benzamide] | > 1000 nM | – | > 5000 nM |
| Nc1ccc(S(=O)(=O)N2CC[C@@H](Nc3ncc(Cl)c(-c4c[nH]c5ccccc45)n3)C2)cc1 [Compound 32, N—((R)-1-(4-aminophenylsulfonyl)pyrrolidin-3-yl)-5-chloro-4-(1H-indol-3-yl)pyrimidin-2-amine] | < 100 nM | > 5000 nM | – |
| N#Cc1cnc(N[C@@H]2CCN(C(=O)c3ccc(NC(=O)/C=C/CN4CCCC4)cc3)C2)nc1-c1c[nH]c2ccccc12 [Compound 108, (E)-N-(4-((R)-3-(5-cyano-4-(1H-indol-3-yl)pyrimidin-2-ylamino)pyrrolidine-1-carbonyl)phenyl)-4-(pyrrolidin-1-yl)but-2-enamide] | < 100 nM | < 500 nM | – |
| C=CC(=O)Nc1ccc(CNC(=O)C2CC(Nc3ncc(Cl)c(-c4c[nH]c5ccccc45)n3)CN(C)C2)cc1 (racemic) [Compound 157, (+/−cis)-N-(4-acrylamidobenzyl)-5-((5-chloro-4-(1H-indol-3-yl)pyrimidin-2-yl)amino)-1-methylpiperidine-3-carboxamide] | < 100 nM | < 500 nM | – |
| Nc1ccc(C(=O)N2CCC(Nc3ncc(Cl)c(-c4c[nH]c5ccccc45)n3)CC2)c(F)c1 [Compound 67, (4-amino-2-fluorophenyl)(4-(5-chloro-4-(1H-indol-3-yl)pyrimidin-2-ylamino)piperidin-1-yl)methanone] | 100 to 1000 nM | 500 to 5000 nM | – |
| Cc1cc(N)ccc1C(=O)N1CCC(Nc2ncc(Cl)c(-c3c[nH]c4ccccc34)n2)CC1 [Compound 63, (4-amino-2-methylphenyl)(4-(5-chloro-4-(1H-indol-3-yl)pyrimidin-2-ylamino)piperidin-1-yl)methanone] | 100 to 1000 nM | > 5000 nM | – |
| CN(C)C/C=C/C(=O)Nc1ccc(C(=O)N2CCC(Nc3ncc(Cl)c(-c4c[nH]c5ccccc45)n3)CC2)cc1F [Compound 112, (E)-N-(4-(4-(5-chloro-4-(1H-indol-3-yl)pyrimidin-2-ylamino)piperidine-1-carbonyl)-2-fluorophenyl)-4-(dimethylamino)but-2-enamide] | < 100 nM | < 500 nM | – |
| CN(C)C/C=C/C(=O)Nc1ccc(C(=O)N2CCC(Nc3ncc(Cl)c(-c4cccnc4)n3)CC2)cc1 [Compound 118, (E)-N-(4-(4-((5-chloro-4-(pyridin-3-yl)pyrimidin-2-yl)amino)piperidine-1-carbonyl)phenyl)-4-(dimethylamino)but-2-enamide] | 100 to 1000 nM | 500 to 5000 nM | – |
| CN(C/C=C/C(=O)Nc1ccc(CN2CCC(Nc3ncc(Cl)c(-c4c[nH]c5ccccc45)n3)CC2)cc1)CC(N)=O [Compound 146, (E)-4-((2-amino-2-oxoethyl)(methyl)amino)-N-(4-((4-((5-chloro-4-(1H-indol-3-yl)pyrimidin-2-yl)amino)piperidin-1-yl)methyl)phenyl)but-2-enamide] | < 100 nM | > 5000 nM | – |
| Nc1ccc(C(=O)N2CCC(Nc3ncc(Cl)c(-c4c[nH]c5ccccc45)n3)CC2)cc1F [Compound 55, (4-amino-3-fluorophenyl)(4-(5-chloro-4-(1H-indol-3-yl)pyrimidin-2-ylamino)piperidin-1-yl)methanone] | < 100 nM | 500 to 5000 nM | – |
| CN(C)C/C=C/C(=O)Nc1cccc(CN2CCC(Nc3ncc(Cl)c(-c4c[nH]c5ccccc45)n3)CC2)c1 [Compound 141, (E)-N-[3-[[4-[[5-chloro-4-(1H-indol-3-yl)pyrimidin-2-yl]amino]-1-piperidyl]methyl]phenyl]-4-(dimethylamino)but-2-enamide] | < 100 nM | < 500 nM | – |
| CN(C)C/C=C/C(=O)Nc1ccc(C(=O)N[C@@H]2CC[C@H](Nc3ncc(Cl)c(-c4c[nH]c5ccccc45)n3)C2)cc1 (racemic) [Compound 120, N-((1R,3S)-3-((5-chloro-4-(1H-indol-3-yl)pyrimidin-2-yl)amino)cyclopentyl)-4-((E)-4-(dimethylamino)but-2-enamido)benzamide and N-((1S,3R)-3-((5-chloro-4-(1H-indol-3-yl)pyrimidin-2-yl)amino)cyclopentyl)-4-((E)-4-(dimethylamino)but-2-enamido)benzamide] | 100 to 1000 nM | < 500 nM | – |
| CC(=O)Nc1ccc(CN2CCC(Nc3ncc(Cl)c(-c4c[nH]c5ccccc45)n3)CC2)cc1 [Compound 47, N-(4-((4-(5-chloro-4-(1H-indol-3-yl)pyrimidin-2-ylamino)piperidin-1-yl)methyl)phenyl)acetamide] | 100 to 1000 nM | 500 to 5000 nM | – |
| C=CC(=O)Nc1ccc(CNC(=O)[C@H]2C[C@H](Nc3ncc(Cl)c(-c4c[nH]c5ccccc45)n3)CN(C)C2)cc1 (relative stereo) [Compound 155, (+/−trans)-N-(4-acrylamidobenzyl)-5-((5-chloro-4-(1H-indol-3-yl)pyrimidin-2-yl)amino)-1-methylpiperidine-3-carboxamide] | 100 to 1000 nM | – | 500 to 5000 nM |
| Cc1nc(C)c(-c2nc(NC3CCN(C(=O)c4ccc(NC(=O)/C=C/CN(C)C)cc4)CC3)ncc2Cl)s1 [Compound 119, (E)-N-(4-(4-((5-chloro-4-(2,4-dimethylthiazol-5-yl)pyrimidin-2-yl)amino)piperidine-1-carbonyl)phenyl)-4-(dimethylamino)but-2-enamide] | 100 to 1000 nM | 500 to 5000 nM | – |
| C=CC(=O)Nc1ccc(NC(=O)[C@@H]2C[C@@H](Nc3ncc(Cl)c(-c4c[nH]c5ccccc45)n3)CN(C)C2)cc1 (relative stereo) [Compound 159, (Trans)-N-(4-acrylamidophenyl)-5-((5-chloro-4-(1H-indol-3-yl)pyrimidin-2-yl)amino)-1-methylpiperidine-3-carboxamide] | 100 to 1000 nM | – | – |
| C=CC(=O)Nc1ccc(NC(=O)[C@H]2C[C@@H](Nc3ncc(Cl)c(-c4c[nH]c5ccccc45)n3)CN(C)C2)cc1 (relative stereo) [Compound 160, (Cis)-N-(4-acrylamidophenyl)-5-((5-chloro-4-(1H-indol-3-yl)pyrimidin-2-yl)amino)-1-methylpiperidine-3-carboxamide] | < 100 nM | – | – |
| Nc1ccc(C(=O)NC2CC3(C2)CC(Nc2ncc(Cl)c(-c4c[nH]c5ccccc45)n2)C3)cc1 (centres unmarked) [Compound 318, 4-amino-N-(6-((5-chloro-4-(1H-indol-3-yl)pyrimidin-2-yl)amino)spiro[3.3]heptan-2-yl)benzamide] | – | > 5000 nM | – |
| CN(C)C/C=C/C(=O)Nc1ccc(C(=O)N[C@H]2CC[C@@H](Nc3ncc(Cl)c(-c4c[nH]c5ccccc45)n3)C2)cc1 [Compound 130, N-((1S,3R)-3-((5-chloro-4-(1H-indol-3-yl)pyrimidin-2-yl)amino)cyclopentyl)-4-((E)-4-(dimethylamino)but-2-enamido)benzamide] | – | < 500 nM | – |
| CN(C)C/C=C/C(=O)Nc1ccc(C(=O)N[C@H]2C[C@@H](Nc3ncc(Cl)c(-c4c[nH]c5ccccc45)n3)CN(C)C2)cc1 (racemic) [161/162, N-[(3S)-5-[[5-chloro-4-(1H-indol-3-yl)pyrimidin-2-yl]amino]-1-methyl-3-piperidyl]-4-[[(E)-4-(dimethylamino)but-2-enoyl]amino]benzamide] | < 100 nM | – | – |
| CS(=O)(=O)NC/C=C/C(=O)Nc1ccc(CN2CCC(Nc3ncc(Cl)c(-c4c[nH]c5ccccc45)n3)CC2)cc1 [Compound 158, (E)-N-(4-((4-((5-chloro-4-(1H-indol-3-yl)pyrimidin-2-yl)amino)piperidin-1-yl)methyl)phenyl)-4-(methylsulfonamido)but-2-enamide] | 100 to 1000 nM | – | – |
